The record followed here is patent publication US20100022531A1, “NOVEL COMPOUNDS AS P2X7 MODULATORS AND USES THEREOF” (RENOVIS, INC., priority 2005, published 2010).

The experiment deals with T1, P2X7 receptor (Homo sapiens, UniProt Q99572).
T1 construct: host or cells: THP-1 cells differentiated with LPS and IFN-γ
T1 sequence (Q99572 1-595): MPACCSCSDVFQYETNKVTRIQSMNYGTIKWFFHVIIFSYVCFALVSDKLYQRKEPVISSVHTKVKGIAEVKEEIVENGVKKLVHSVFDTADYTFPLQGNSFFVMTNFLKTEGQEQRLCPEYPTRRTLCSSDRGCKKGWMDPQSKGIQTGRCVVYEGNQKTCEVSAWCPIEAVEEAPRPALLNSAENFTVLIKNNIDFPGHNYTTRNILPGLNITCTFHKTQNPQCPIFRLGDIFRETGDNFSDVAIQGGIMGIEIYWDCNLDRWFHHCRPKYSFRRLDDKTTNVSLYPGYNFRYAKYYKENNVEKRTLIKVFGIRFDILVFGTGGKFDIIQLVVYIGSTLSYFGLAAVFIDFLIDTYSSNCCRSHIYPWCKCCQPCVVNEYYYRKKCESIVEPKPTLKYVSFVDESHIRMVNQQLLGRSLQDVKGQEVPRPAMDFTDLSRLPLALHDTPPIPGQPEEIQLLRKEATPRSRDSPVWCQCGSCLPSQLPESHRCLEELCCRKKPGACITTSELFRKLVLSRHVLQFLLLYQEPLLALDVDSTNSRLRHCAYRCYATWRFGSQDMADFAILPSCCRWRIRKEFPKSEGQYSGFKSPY
Nature of the experiment: Alternate method for IL-1β release assay (differentiated THP-1 cells, BzATP-stimulated, ELISA). The note with it: for inhibition at 0.1 µM: 0.1 μM compound (symbols + to ++++), read-out: IL-1β % inhib @ 0.1 μM. The format is cell-based. In short, it runs like this: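 After 16 h differentiation with 100 ng/mL LPS and 100 ng/mL IFN-γ plus a further 2 h LPS priming, THP-1 cells were pretreated 30 min with compound, then stimulated with 250 uM BzATP (final) for 45 min. Supernatant IL-1β measured by ELISA; percent inhibition from background-adjusted levels versus untreated cells.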
On the technique in general: In an ELISA, binding on a coated surface is turned into a signal by an enzyme label.

Where [1] appears, read: P2X7, 0.3 μM compound (symbols * to ****), read-out: IL-1β % inhib @ 0.3 μM.

Like-named read-outs stand apart in the source and are kept apart here. Where only a bound is given, the exact number is not on record here.

Take `FC12CC3CC(C1)CC(CNc1ncnc4c1CCN(Cc1ccccc1)C4)(C3)C2` [Compound 252]: where the note is “P2X7”, the inhibition at 0.1 µM is more than 75%. As to `O=C(c1cnn(-c2ccccc2)c1C(F)(F)F)N1CCc2c(ncnc2NCC23CC4CC(CC(C4)C2)C3)C1` [Compound 255], the inhibition at 0.3 µM under setting [1] was more than 75%. In the case of `O=C(c1cccnc1)N1CCc2c(ncnc2NCC23CC4CC(CC(C4)C2)C3)C1` [Compound 257, 4-[(Adamantan-1-ylmethyl)-amino]-5,8-dihydro-6H-pyrido[3,4-d]pyrimidin-7-yl-pyridin-3-yl-methanone], the inhibition at 0.1 µM (P2X7) is more than 75%. For `CN(C)CCN1CCN(CC(=O)N2CCc3c(ncnc3NCC34CC5CC(CC(C5)C3)C4)C2)CC1` [Compound 258], the inhibition at 0.3 µM under setting [1] lay within 0 to 25%. In the case of `O=C(CN1CCN(c2ccccc2)CC1)N1CCc2c(ncnc2NCC23CC4CC(CC(C4)C2)C3)C1` [Compound 259], the inhibition at 0.3 µM under setting [1] lay in the range of 50 to 75%. `CN(CC(=O)N1CCc2c(ncnc2NCC23CC4CC(CC(C4)C2)C3)C1)Cc1ccccc1` [Compound 260]: the inhibition at 0.1 µM (P2X7) was more than 75%. Consider `O=C(CNC1CCN(Cc2ccccc2)CC1)N1CCc2c(ncnc2NCC23CC4CC(CC(C4)C2)C3)C1` [Compound 261], for which the inhibition at 0.3 µM under setting [1] fell in the range of 25 to 50%. With `O=C(CN1CCC(Cc2ccccc2)CC1)N1CCc2c(ncnc2NCC23CC4CC(CC(C4)C2)C3)C1` [Compound 264], the inhibition at 0.3 µM under setting [1] lay within 25 to 50%. For `O=C(CN1CCCCC1)N1CCc2c(ncnc2NCC23CC4CC(CC(C4)C2)C3)C1` [Compound 266], where the note is “P2X7, read-out: IL-1β % inhib @ 0.3 μM”, the inhibition at 0.3 µM is 0 to 25%. For `O=C(CN1CCN(CC(=O)N2CCc3c(ncnc3NCC34CC5CC(CC(C5)C3)C4)C2)CC1)N1CCOCC1` [Compound 267], the inhibition at 0.3 µM under setting [1] is 0 to 25%. Still for that read-out and setting: as for `CCN(CC(=O)N1CCc2c(ncnc2NCC2C3CC4CC(C3)CC2C4)C1)Cc1ccncc1` (centres unmarked) [Compound 268], the figure is 50 to 75%. Same read-out and setting: as for `CN(CC(=O)N1CCc2c(ncnc2NCC2C3CC4CC(C3)CC2C4)C1)C1CCCCC1` (centres unmarked) [Compound 269], the figure is 50 to 75%. `O=C(CN1CCN(Cc2ccccc2)CC1)N1CCc2c(ncnc2NCC2C3CC4CC(C3)CC2C4)C1` (centres unmarked) [Compound 271]: the inhibition at 0.3 µM under setting [1] is 0 to 25%. For `O=C(CN1CCOCC1)N1CCc2c(ncnc2NCC2C3CC4CC(C3)CC2C4)C1` (centres unmarked) [Compound 272], under setting [1], the inhibition at 0.3 µM lay within 0 to 25%. `O=C(CN1CCc2ccccc2C1)N1CCc2c(ncnc2NCC2C3CC4CC(C3)CC2C4)C1` (centres unmarked) [Compound 274]: under setting [1], the inhibition at 0.3 µM lay within 25 to 50%. For the compound `O=C(CN1CCCCCC1)N1CCc2c(ncnc2NCC2C3CC4CC(C3)CC2C4)C1` (centres unmarked) [Compound 275], under setting [1], the inhibition at 0.3 µM lay within 0 to 25%.

Regarding `CN(C)CCCN(C)CC(=O)N1CCc2c(ncnc2NCC2C3CC4CC(C3)CC2C4)C1` (centres unmarked) [Compound 276], the inhibition at 0.3 µM under setting [1] fell in the range of 0 to 25%.

Consider `CN(CCC#N)CC(=O)N1CCc2c(ncnc2NCC2C3CC4CC(C3)CC2C4)C1` (centres unmarked) [Compound 277], for which the inhibition at 0.3 µM under setting [1] lay within 0 to 25%. `CCN1CCN(CC(=O)N2CCc3c(ncnc3NCC3C4CC5CC(C4)CC3C5)C2)CC1` (centres unmarked) [Compound 278]: under setting [1], the inhibition at 0.3 µM was in the range of 25 to 50%. On the same count and under the same terms, in the case of `CN(CCc1ccccn1)CC(=O)N1CCc2c(ncnc2NCC2C3CC4CC(C3)CC2C4)C1` (centres unmarked) [Compound 279] it was 50 to 75%; in that of `CCN(C)CC(=O)N1CCc2c(ncnc2NCC2C3CC4CC(C3)CC2C4)C1` (centres unmarked) [Compound 282], 0 to 25%. For `O=C(CN1CCC1)N1CCc2c(ncnc2NCC2C3CC4CC(C3)CC2C4)C1` (centres unmarked) [Compound 283], the inhibition at 0.3 µM under setting [1] lay in the range of 0 to 25%.

With `CN(CCc1ccccc1)CC(=O)N1CCc2c(ncnc2NCC2C3CC4CC(C3)CC2C4)C1` (centres unmarked) [Compound 284], under setting [1], the inhibition at 0.3 µM is more than 75%. On the same count and under the same terms, as for `CC(C)N1CCN(CC(=O)N2CCc3c(ncnc3NCC3C4CC5CC(C4)CC3C5)C2)CC1` (centres unmarked) [Compound 285], the figure is 0 to 25%; as for `CCCCN(C)CC(=O)N1CCc2c(ncnc2NCC2C3CC4CC(C3)CC2C4)C1` (centres unmarked) [Compound 288], 50 to 75%. On to `CN1CCC(NCC(=O)N2CCc3c(ncnc3NCC3C4CC5CC(C4)CC3C5)C2)CC1` (centres unmarked) [Compound 289], for which the inhibition at 0.3 µM under setting [1] lay within 0 to 25%. Regarding `CC1CCN(CC(=O)N2CCc3c(ncnc3NCC3C4CC5CC(C4)CC3C5)C2)CC1` (centres unmarked) [Compound 292], under setting [1], the inhibition at 0.3 µM was in the range of 25 to 50%. `O=C(CN1CCC(c2ccccc2)CC1)N1CCc2c(ncnc2NCC2C3CC4CC(C3)CC2C4)C1` (centres unmarked) [Compound 294]: the inhibition at 0.3 µM under setting [1] is 0 to 25%. With `CN(CC(=O)N1CCc2c(ncnc2NCC2C3CC4CC(C3)CC2C4)C1)Cc1ccco1` (centres unmarked) [Compound 295], the inhibition at 0.3 µM under setting [1] fell in the range of 0 to 25%. Regarding `COc1ccc(CN(C)CC(=O)N2CCc3c(ncnc3NCC3C4CC5CC(C4)CC3C5)C2)cc1OC` (centres unmarked) [Compound 296], the inhibition at 0.3 µM under setting [1] lay in the range of 0 to 25%.

For `COc1ccc(CCN(C)CC(=O)N2CCc3c(ncnc3NCC3C4CC5CC(C4)CC3C5)C2)cc1OC` (centres unmarked) [Compound 297], the inhibition at 0.3 µM under setting [1] was in the range of 0 to 25%. On the same count and under the same terms, in the case of `O=C(CN1CCC(N2CCOCC2)CC1)N1CCc2c(ncnc2NCC2C3CC4CC(C3)CC2C4)C1` (centres unmarked) [Compound 299] it was 25 to 50%.

In the case of `O=C(CN1CCC(C(F)(F)F)CC1)N1CCc2c(ncnc2NCC2C3CC4CC(C3)CC2C4)C1` (centres unmarked) [Compound 300], the inhibition at 0.3 µM under setting [1] fell in the range of 0 to 25%. As to `O=C(CN1CCN(c2ncccn2)CC1)N1CCc2c(ncnc2NCC2C3CC4CC(C3)CC2C4)C1` (centres unmarked) [Compound 301], under setting [1], the inhibition at 0.3 µM fell in the range of 0 to 25%. For the compound `O=C(CN1CCN(c2ncncn2)CC1)N1CCc2c(ncnc2NCC2C3CC4CC(C3)CC2C4)C1` (centres unmarked) [Compound 302], under setting [1], the inhibition at 0.3 µM is 25 to 50%. The same measure, in the same setting: in the case of `O=C(CN1CCN(CCn2cccc2)CC1)N1CCc2c(ncnc2NCC2C3CC4CC(C3)CC2C4)C1` (centres unmarked) [Compound 303] it was 25 to 50%; in that of `COCCN(C)CC(=O)N1CCc2c(ncnc2NCC2C3CC4CC(C3)CC2C4)C1` (centres unmarked) [Compound 304], 25 to 50%; in that of `CN(CC(=O)N1CCc2c(ncnc2NCC2C3CC4CC(C3)CC2C4)C1)Cc1ccc(Cl)cc1` (centres unmarked) [Compound 306], 25 to 50%. As to `COc1cccc(CN(C)CC(=O)N2CCc3c(ncnc3NCC3C4CC5CC(C4)CC3C5)C2)c1` (centres unmarked) [Compound 308], under setting [1], the inhibition at 0.3 µM fell in the range of 0 to 25%. Same read-out and setting: in the case of `CCc1ccc(CN(C)CC(=O)N2CCc3c(ncnc3NCC3C4CC5CC(C4)CC3C5)C2)cc1` (centres unmarked) [Compound 309] it was 25 to 50%; in that of `O=C(CN1CCC(F)(F)CC1)N1CCc2c(ncnc2NCC2C3CC4CC(C3)CC2C4)C1` (centres unmarked) [Compound 310], 0 to 25%; in that of `CN(CC(=O)N1CCc2c(ncnc2NCC2C3CC4CC(C3)CC2C4)C1)Cc1cccc(Cl)c1` (centres unmarked) [Compound 311], 25 to 50%. Same read-out and setting: as for `CN(CC(=O)N1CCc2c(ncnc2NCC2C3CC4CC(C3)CC2C4)C1)Cc1ccc(F)cc1` (centres unmarked) [Compound 312], the figure is 0 to 25%; as for `CC(C)N(C)CC(=O)N1CCc2c(ncnc2NCC2C3CC4CC(C3)CC2C4)C1` (centres unmarked) [Compound 313], 0 to 25%. On the same count and under the same terms, as for `CN1CCC(N(C)CC(=O)N2CCc3c(ncnc3NCC3C4CC5CC(C4)CC3C5)C2)C1` (centres unmarked) [Compound 314], the figure is 0 to 25%; as for `C[C@@H](c1ccccc1)N(C)CC(=O)N1CCc2c(ncnc2NCC2C3CC4CC(C3)CC2C4)C1` (some centres unmarked) [Compound 315], more than 75%. Turning to `COc1ccc(CN(C)CC(=O)N2CCc3c(ncnc3NCC3C4CC5CC(C4)CC3C5)C2)cc1` (centres unmarked) [Compound 316], the inhibition at 0.3 µM under setting [1] was 25 to 50%. As for `CN(CC(=O)N1CCc2c(ncnc2NCC2C3CC4CC(C3)CC2C4)C1)Cc1ccc(C(F)(F)F)cc1` (centres unmarked) [Compound 317], under setting [1], the inhibition at 0.3 µM was 25 to 50%. Take `Cc1ccc(CN(C)CC(=O)N2CCc3c(ncnc3NCC3C4CC5CC(C4)CC3C5)C2)cc1` (centres unmarked) [Compound 318]: the inhibition at 0.3 µM under setting [1] was 25 to 50%. On the same count and under the same terms, in the case of `CN(CC(=O)N1CCc2c(ncnc2NCC2C3CC4CC(C3)CC2C4)C1)Cc1ccncc1` (centres unmarked) [Compound 319] it was 25 to 50%; in that of `CN(CC(=O)N1CCc2c(ncnc2NCC2C3CC4CC(C3)CC2C4)C1)Cc1cccnc1` (centres unmarked) [Compound 320], 25 to 50%. With `O=C(c1cccnc1)N1CCc2c(ncnc2NCC23CC4CC(CC(F)(C4)C2)C3)C1` [Compound 322], the inhibition at 0.1 µM (P2X7) is 25 to 50%. For the compound `Fc1ccc(CN2CCc3c(ncnc3NCC34CC5CC(CC(F)(C5)C3)C4)C2)c(F)c1` [Compound 323], the inhibition at 0.1 µM (P2X7) was 50 to 75%. Still for that read-out and setting: as for `O=C(OCc1ccc(C(F)(F)F)cc1)N1CCc2c(ncnc2NCC23CC4CC(CC(C4)C2)C3)C1` [Compound 324], the figure is 50 to 75%; as for `O=C(OCc1ccc(F)cc1F)N1CCc2c(ncnc2NCC23CC4CC(CC(C4)C2)C3)C1` [Compound 325], more than 75%. Same read-out and setting: as for `OC12CC3CC(C1)CC(CNc1ncnc4c1CCN(Cc1ccccc1)C4)(C3)C2` [Compound 326, 3-[(7-Benzyl-5,6,7,8-tetrahydro-pyrido[3,4-d]pyrimidin-4-ylamino)-methyl]-adamantan-1-ol], the figure is more than 75%.
